Values joined by “and” are separate entries in the source; they are usually repeats but may differ in a detail not shown here. Equal entries are not always repeated. Where two headings read alike, the source gives them in different places. Numbered stars: 1 amine (or outer) side, 2 acyl side, 3 side chain; on linkers, the order of the positions; unused ones are H or OH. Bridge positions count the residues as written; N and C are the ends. Square brackets hold non-standard residues; d marks the D form. Peptide text beside a SMILES is read from it. * marks the point of attachment. Orn(4R-OH,5R-OH) = O=C([C@H](C[C@@H](O)[C@@H](O)N[*:3])N[*:1])[*:2]; hTyr(3S-OH,4S-OH) = N[C@H](C(=O)O)[C@H](O)[C@@H](O)c1ccc(O)cc1; Pro(3S-OH,4S-Me) = C[C@H]1CN[C@H](C(=O)O)[C@H]1O; Palmitoleoyl = CCCCCC/C=C\CCCCCCCC(=O)*; Heptadecanoyl = CCCCCCCCCCCCCCCCC(=O)*; Oleoyl = CCCCCCCC/C=C\CCCCCCCC(=O)*; X2 = CCCCC/C=C/C/C=C/CCCCCCCC(=O)*; X4 = CCCCCCCC/C=C\CCCCCCCCCC(=O)*; Hyp = O=C(O)[C@@H]1C[C@@H](O)CN1; X3 = CCCCCCCC/C=C/CCCCCCCC(=O)*; X6 = CCCCCC/C=C\CCCCCCCCCC(=O)*; X5 = CCCCCC/C=C/CCCCCCCC(=O)*; Lauroyl = CCCCCCCCCCCC(=O)*
How the values were obtained:
[1] = system: Saccharomyces pastoranius X-52; assay: Agar plate disc diffusion test (zone of inhibition); assay type: cell-based, Saccharomyces pastorianus; details: X52, suspension in methanol 1 mg/ml, 7mm disc, 24-48 hours at 25-37° C., read-out: Size of zone of inhibition, Saccharomyces pastoranius X-52
Protocol: (§1) Tables II and III give the results of the testing in vitro of the compounds of Examples 1-16 by agar-plate disc-diffusion methods. In Table II activity is measured by the size (diameter in mm.) of the observed zone of inhibition of the microorganism produced by the test compound. In Table III, activity is measured by the minimal inhibitory concentration (MIC) of the substance (μg/dic) required to inhibit growth of the test organism. Table IV gives the results of the testing in vitro of the n-tridecanoyl derivative of A30912A nucleus (Formula III, R is n-C12 H25) against five strains of Candida albicans by the agar dilution method. In […] activity is measured by the minimal inhibitory concentration (MIC) of the substance (μg/ml) required to inhibit the test organism.
(§2) ^(a) Compounds were tested as suspension in methanol at a
(§3) concentration of 1 mg/ml. by dipping a 7mm disc into the suspension and
(§4) placing it on the agar surface. Incubation: 24-48 hours at 25-37°

Candida albicans A-26 [2] = assay: as above; assay type: cell-based; details: suspension in methanol 1 mg/ml, 7mm disc; 24-48 hours at 25-37° C.
Protocol: as §1, §2, §3, §4

Neurospora crassa 846 = assay: as above; assay type: cell-based; details: Neurospora crassa, 846, suspension in methanol 1 mg/ml, 7mm disc
Protocol: as §1, §2, §3, §4

Candida albicans A-26 [3] = assay: Agar plate disc diffusion test (MIC); assay type: cell-based; details: 0.01M sodium borate pH 7.5; 20 μg/disc top, twofold dilutions; 24 hours, 30° C.
Protocol: as §1
(§5) *Compounds were suspended in 0.01M sodium borate solution, pH 7.5. The
(§6) compounds were tested at 20 μg/disc at top level and at twofold
(§7) dilutions until end points were reached. Incubation: 24 hours; 30°

[4] = system: Trichophyton mentagrophytes #6; assay: Agar plate disc diffusion test (MIC); assay type: cell-based; details: 0.01M sodium borate pH 7.5; 20 μg/disc top, twofold dilutions; 24 hours, 30° C.
Protocol: as §1, §5, §6, §7

Candida albicans A-26 [5] = assay: In vivo activity against Candida albicans A-26 infection in mice; design: species or system mice infected with Candida albicans A-26; details: mice, subcutaneous; for ED50 / minimal effective dose: Candida albicans, A26, sc, 24 h; for ED50: increase in survival time, read-out: ED50; for minimal effective dose: read-out: Lowest Active Dose
Protocol: The results of in vivo tests to evaluate the effectiveness of the compound of Examples 1-16 against an infection caused by Candida albicans A-26 in mice are given in Table V, where activity is measured by the ED50 value (the dose in mg/kg. required to cure 50% of the test animals). Where an ED50 value was not obtained, activity is indicated by the lowest dose at which a significant anti-fungal effect is observed. In this test, groups of male albino mice (specific pathogen free), weighing 18 to 20 grams, are infected intravenously with Candida albicans A-26. The animals are X-irradiated 24 hours prior to infection at about 50 roentgens per minute for 8 minutes (400 total dose) to reduce immune responses to the infecting organism. At 0, 4, and 24 hours post infection each group of mice is given graded doses subcutaneously of the test compound as a suspension in 33% polyethylene glycol-water. The day of death for each animal is recorded.
mg/kg. Dosages given 0, 4, and 24 hours post injection as suspension of
test compound in 30% PEG--H2 O. Number of mice receiving test
compounds at each dosage level; 6 mice per group. Number of mice in
control (untreated) group: 10 mice per group.
**As measured by increase in survival time of treated animals versus
control, calculated by method of Reed v Mueuch, American J. Hygiene, 27,

[6] = Blood levels after oral administration in mice (bioassay vs. Aspergillus montevidensis A35137); details: mouse, in vivo; for Blood Levels After Oral Administration In Mice: 240 min; for concentration at 4 h: po, 416 mg/kg
From the text: determined by bioassay vs. Aspergillus montevidensis A35137.

[7] = system: Trichophyton mentagraphytes A-23; assay: Agar plate disc diffusion test (zone of inhibition); assay type: cell-based, Trichophyton mentagrophytes; details: A23, suspension in methanol 1 mg/ml, 7mm disc
Protocol: as §1, §2, §3, §4

[8] = 24-48 hours at 25-37° C., read-out: Size of zone of inhibition, Neurospora crassa 846
[9] = schedule B (80, 40, 20, 10 mg/kg), 0, 4, 24 hours
[10] = *distinct measurable zone of inhibition with regrowth of organism around disc, read-out: Size of zone of inhibition, Neurospora crassa 846 (*)
[11] = *distinct measurable zone of inhibition with regrowth of organism around disc, read-out: Size of zone of inhibition, Trichophyton mentagraphytes A-23 (*)
[12] = schedule A (40, 20, 15, and 10 mg/kg), 0, 4, 24 hours
[13] = 24-48 hours at 25-37° C., read-out: Size of zone of inhibition, Trichophyton mentagraphytes A-23

SMILES | zone of inhibition at 1000 µg/mL [1] | Size of zone of inhibition, Candida albicans A-26 (Candida albicans A-26 [2]) | zone of inhibition at 1000 µg/mL (Neurospora crassa 846; [8]) | MIC, Candida albicans A-26 (Candida albicans A-26 [3]) | MIC, Trichophyton mentagrophytes #6 [4] | ED50 (Candida albicans A-26 [5]; [9]) | minimal effective dose (Candida albicans A-26 [5]; [9]) | Blood Levels After Oral Administration In Mice [6] | zone of inhibition at 1000 µg/mL (Neurospora crassa 846; [10]) | zone of inhibition at 1000 µg/mL [7, 11] | ED50 (Candida albicans A-26 [5]; [12]) | minimal effective dose (Candida albicans A-26 [5]; [12]) | concentration at 4 h [6] | zone of inhibition at 1000 µg/mL [7, 13] | Lowest Active Dose (Candida albicans A-26 [5]; [12])
CCCCCCCCCCCC(=O)N[C@H]1C[C@@H](O)[C@@H](O)NC(=O)[C@@H]2[C@@H](O)[C@@H](C)CN2C(=O)[C@H]([C@@H](C)O)NC(=O)[C@H]([C@H](O)[C@@H](O)c2ccc(O)cc2)NC(=O)[C@@H]2C[C@@H](O)CN2C(=O)[C@H]([C@@H](C)O)NC1=O [Example 1] (Lauroyl-[Orn(4R-OH,5R-OH)]T[Hyp][hTyr(3S-OH,4S-OH)]T[Pro(3S-OH,4S-Me)]; lactam 1-C) | 16 mm | 25 mm | 40 mm | 1.25 μg/disc | 0.078 μg/disc | 62 mg/kg | 20 mg/kg | 0 ng/mL |  |  |  |  |  |  | 
CCCCCC/C=C/CCCCCCCC(=O)N[C@H]1C[C@@H](O)[C@@H](O)NC(=O)[C@@H]2[C@@H](O)[C@@H](C)CN2C(=O)[C@H]([C@@H](C)O)NC(=O)[C@H]([C@H](O)[C@@H](O)c2ccc(O)cc2)NC(=O)[C@@H]2C[C@@H](O)CN2C(=O)[C@H]([C@@H](C)O)NC1=O [Example 3] (X5-[Orn(4R-OH,5R-OH)]T[Hyp][hTyr(3S-OH,4S-OH)]T[Pro(3S-OH,4S-Me)]; lactam 1-C) | 19 mm | 24 mm |  |  |  |  |  |  | 40 mm | 50 mm | 40 mg/kg | 20 mg/kg |  |  | 
CCCCCC/C=C\CCCCCCCC(=O)N[C@H]1C[C@@H](O)[C@@H](O)NC(=O)[C@@H]2[C@@H](O)[C@@H](C)CN2C(=O)[C@H]([C@@H](C)O)NC(=O)[C@H]([C@H](O)[C@@H](O)c2ccc(O)cc2)NC(=O)[C@@H]2C[C@@H](O)CN2C(=O)[C@H]([C@@H](C)O)NC1=O [Example 4] (Palmitoleoyl-[Orn(4R-OH,5R-OH)]T[Hyp][hTyr(3S-OH,4S-OH)]T[Pro(3S-OH,4S-Me)]; lactam 1-C) |  |  |  |  | < 0.039 μg/disc |  |  |  |  |  | > 40 mg/kg | 20 mg/kg | 190 ng/mL |  | 
CCCCCCCCCCCCCCCCC(=O)N[C@H]1C[C@@H](O)[C@@H](O)NC(=O)[C@@H]2[C@@H](O)[C@@H](C)CN2C(=O)[C@H]([C@@H](C)O)NC(=O)[C@H]([C@H](O)[C@@H](O)c2ccc(O)cc2)NC(=O)[C@@H]2C[C@@H](O)CN2C(=O)[C@H]([C@@H](C)O)NC1=O [Example 5] (Heptadecanoyl-[Orn(4R-OH,5R-OH)]T[Hyp][hTyr(3S-OH,4S-OH)]T[Pro(3S-OH,4S-Me)]; lactam 1-C) | 30 mm | 18 mm | 21 mm | 0.625 μg/disc | 0.039 μg/disc |  |  |  |  | 40 mm | 9 mg/kg | ≥ 5 mg/kg | 97000 ng/mL |  | 
CCCCCCCC/C=C\CCCCCCCC(=O)N[C@H]1C[C@@H](O)[C@@H](O)NC(=O)[C@@H]2[C@@H](O)[C@@H](C)CN2C(=O)[C@H]([C@@H](C)O)NC(=O)[C@H]([C@H](O)[C@@H](O)c2ccc(O)cc2)NC(=O)[C@@H]2C[C@@H](O)CN2C(=O)[C@H]([C@@H](C)O)NC1=O [Example 7] (Oleoyl-[Orn(4R-OH,5R-OH)]T[Hyp][hTyr(3S-OH,4S-OH)]T[Pro(3S-OH,4S-Me)]; lactam 1-C) | 19 mm | 23 mm | 18 mm | 0.625 μg/disc |  |  |  | 0 ng/mL |  |  |  | 10 mg/kg |  | 1 mm | 20 mg/kg
CCCCCCCC/C=C/CCCCCCCC(=O)N[C@H]1C[C@@H](O)[C@@H](O)NC(=O)[C@@H]2[C@@H](O)[C@@H](C)CN2C(=O)[C@H]([C@@H](C)O)NC(=O)[C@H]([C@H](O)[C@@H](O)c2ccc(O)cc2)NC(=O)[C@@H]2C[C@@H](O)CN2C(=O)[C@H]([C@@H](C)O)NC1=O [Example 8] (X3-[Orn(4R-OH,5R-OH)]T[Hyp][hTyr(3S-OH,4S-OH)]T[Pro(3S-OH,4S-Me)]; lactam 1-C) | 18 mm | 21 mm | 32 mm | 0.156 μg/disc | < 0.039 μg/disc |  |  |  |  | 31 mm | 11 mg/kg | 10 mg/kg | 65000 ng/mL |  | 
CCCCCC/C=C\CCCCCCCCCC(=O)N[C@H]1C[C@@H](O)[C@@H](O)NC(=O)[C@@H]2[C@@H](O)[C@@H](C)CN2C(=O)[C@H]([C@@H](C)O)NC(=O)[C@H]([C@H](O)[C@@H](O)c2ccc(O)cc2)NC(=O)[C@@H]2C[C@@H](O)CN2C(=O)[C@H]([C@@H](C)O)NC1=O [Example 9] (X6-[Orn(4R-OH,5R-OH)]T[Hyp][hTyr(3S-OH,4S-OH)]T[Pro(3S-OH,4S-Me)]; lactam 1-C) |  |  |  | 0.312 μg/disc | < 0.039 μg/disc |  |  |  |  |  | > 40 mg/kg | 40 mg/kg | 4200 ng/mL |  | 
CCCCC/C=C/C/C=C/CCCCCCCC(=O)N[C@H]1C[C@@H](O)[C@@H](O)NC(=O)[C@@H]2[C@@H](O)[C@@H](C)CN2C(=O)[C@H]([C@@H](C)O)NC(=O)[C@H]([C@H](O)[C@@H](O)c2ccc(O)cc2)NC(=O)[C@@H]2C[C@@H](O)CN2C(=O)[C@H]([C@@H](C)O)NC1=O [Example 10] (X2-[Orn(4R-OH,5R-OH)]T[Hyp][hTyr(3S-OH,4S-OH)]T[Pro(3S-OH,4S-Me)]; lactam 1-C) | 24 mm | 24 mm |  | 0.156 μg/disc | < 0.039 μg/disc |  |  |  | 26 mm |  | 16 mg/kg | 10 mg/kg | 610 ng/mL | 36 mm | 
CCCCCCCC/C=C\CCCCCCCCCC(=O)N[C@H]1C[C@@H](O)[C@@H](O)NC(=O)[C@@H]2[C@@H](O)[C@@H](C)CN2C(=O)[C@H]([C@@H](C)O)NC(=O)[C@H]([C@H](O)[C@@H](O)c2ccc(O)cc2)NC(=O)[C@@H]2C[C@@H](O)CN2C(=O)[C@H]([C@@H](C)O)NC1=O [Example 14] (X4-[Orn(4R-OH,5R-OH)]T[Hyp][hTyr(3S-OH,4S-OH)]T[Pro(3S-OH,4S-Me)]; lactam 1-C) | 18 mm | 22 mm | 18 mm | 1.25 μg/disc and 2.5 μg/disc |  |  |  |  |  | 23 mm |  | 10 mg/kg |  |  | 

Source: patent US4320052A, “Derivatives of A-30912A nucleus” (Eli Lilly and Company, priority 1980, dated 1982)
